{
  "source": "patent US9127044B2",
  "about": "“Cyclic depsipeptides” (NOVARTIS AG, priority 2007, dated 2015)",
  "key": {"human kallikrein 7": {"molecular_target": "human kallikrein 7 (Homo sapiens, UniProt P49862)", "sequence (P49862 30-253)": "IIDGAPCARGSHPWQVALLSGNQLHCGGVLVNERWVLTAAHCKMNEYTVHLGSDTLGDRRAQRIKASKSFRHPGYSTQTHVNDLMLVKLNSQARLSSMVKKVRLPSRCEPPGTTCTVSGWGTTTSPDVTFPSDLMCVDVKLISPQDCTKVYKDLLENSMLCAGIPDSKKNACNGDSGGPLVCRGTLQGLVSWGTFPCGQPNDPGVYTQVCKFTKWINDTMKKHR", "assay": "Kallikrein-7 inhibitory activity in vitro (fluorescence-quenched substrate)", "type": "biochemical"}, "hairless SKH1 mice": {"tested_on": "hairless SKH1 mice", "assay": "Test on recovery of skin barrier disruption in mice (TEWL)", "type": "in vivo", "settings": "10 mM", "method": "The procedure was completed when transepidermal water loss (TEWL) achieved ≧40 mg/cm^2/h. TEWL was assessed with a Tewameter TM210 (Courage Khazaka, Cologne, Del.). Immediately after barrier disruption 30 μl the test compound was applied at 10 mM concentration. Control animals were treated similarly with the solvent (ethanol/propylene glycol, 3/7 (v/v)) alone. TEWL was measured before, immediately after, and at 3 hrs after barrier disruption. In each animal, the percentage recovery was calculated using the formula: (1−[TEWL at 3 hrs−base line TEWL]/[TEWL immediately after stripping−base line TEWL])×100%."}, "Crl:NMRI mice": {"tested_on": "Crl:NMRI mice", "assay": "Anti-inflammatory activity in murine model of allergic contact dermatitis (ACD), oxazolone", "type": "in vivo", "settings": "for Δ Auricular weights Mean (SD): 10 μl topical 30 min after challenge, n: 8 animals per group; for % Inhibition of inflammatory swelling Mean ± SE: single topical application, p<0.001 vs solvent-treated animals", "method": "Method: Crl:NMRI mice were sensitized on the shaved abdomen with 50 μl of 2% oxazolone on day 1 and challenged with 10 μl oxazolone on the inner surface of the right ear on day 8. The unchallenged left ears served as normal controls and dermatitis was evaluated from the difference in auricular weight (taken as a measure of inflammatory swelling) on day 9. The animals were treated topically with 10 μl test compound or the solvent only 30 min after the challenge. The efficacy of the treatment was calculated as the percentage inhibition of inflammatory auricular swelling relative to animals treated with the vehicle alone."}, "[1]": {"tested_on": "Swine Model of Allergic Contact Dermatitis (ACD)", "assay": "Anti-inflammatory activity in swine model of allergic contact dermatitis (ACD), DNFB", "type": "in vivo", "method": "Eight days before the elicitation of the ACD, […] of 10% 2,4-dinitrofluorobenzene (DNFB, dissolved in DMSO/acetone/olive oil [1/5/3, v/v/v]) were applied epicutaneously in divided volumes onto the basis of both ears and onto both groins (100 μl/site) for sensitization. The challenge reactions were elicited with 15 μl of DNFB (1.0%) on contralateral test sites (each 7 cm^2 in size) of the shaved dorsolateral back. For treatment, the test compound and the placebo (solvent only) were applied contralaterally to 2 test sites in each animal 0.5 and 6 hrs after the challenge. The test sites were clinically examined 24 hrs after the challenge when inflammation peaked. The changes were scored on a scale from 0 to 4 (Table 15), allowing a combined maximal score of 12 per designated site. Skin reddening was measured reflectometrically using a* values."}},
  "note": "Where “and” joins values, the source holds several entries; their conditions need not be identical. Equal values may be shown once.",
  "data": [
    {"smiles": "CCC(C)[C@@H]1NC(=O)[C@H](Cc2ccc(O)cc2)N(C)C(=O)[C@H](C(C)CC)N2C(=O)C(CC[C@@H]2O)NC(=O)[C@H](CC(C)C)NC(=O)[C@@H](NC(=O)[C@H](CCC(N)=O)NC(=O)C(C)C)[C@@H](C)OC1=O", "note": "(some centres unmarked) [formula II]", "values": [
      {"measurement": "IC50", "setting": "human kallikrein 7; hKallikrein7 IC50, Table 10", "result": 1, "unit": "nM"},
      {"measurement": "IC50", "setting": "human kallikrein 7; hKallikrein7 IC 50, Table 11", "result": 1, "unit": "nM"},
      {"measurement": "% Recovery in barrier disruption Mean (SD values)", "setting": "hairless SKH1 mice; 30 μl topical, TEWL at 3 hrs, n: 4 animals per group", "result": "72.0 (9.1) %"},
      {"measurement": "acceleration of barrier repair compared to repair in mice treated with the solvent alone", "setting": "hairless SKH1 mice; single topical application, 3 hrs after barrier disruption, p<0.05", "result": 57, "unit": "%"},
      {"measurement": "Δ Auricular weights Mean (SD)", "setting": "Crl:NMRI mice; 10 mM", "result": "17.0 (4.8)"},
      {"measurement": "% Inhibition of inflammatory swelling Mean ± SE", "setting": "Crl:NMRI mice; 10 mM", "result": "40% and 40 ± 6.9%"},
      {"measurement": "Δ Auricular weights Mean (SD)", "setting": "Crl:NMRI mice; 30 mM", "result": "15.3 (5.4)"},
      {"measurement": "% Inhibition of inflammatory swelling Mean ± SE", "setting": "Crl:NMRI mice; 30 mM", "result": "46% and 46 ± 7.5%"},
      {"measurement": "A* value (Mean), skin reddening measured reflectometrically", "setting": "[1]; 1% solution applied 0.5 and 6 hrs after challenge, 24 hrs, n: 8 test sites", "result": 8.6},
      {"measurement": "Clinical score (Mean)", "setting": "[1]; 1% solution applied 0.5 and 6 hrs after challenge, scored at 24 hrs, maximal score 12, n: 8 test sites", "result": 5.1},
      {"measurement": "Inhibition vs placebo-treated sites, A* value", "setting": "[1]; Table 16, 1% test compound", "result": 27.0},
      {"measurement": "Inhibition vs placebo-treated sites, clinical score", "setting": "[1]; Table 16, 1% test compound", "result": 29.9},
      {"measurement": "inhibition of clinical inflammatory changes", "setting": "[1]; treated twice with 1% solution, p<0.01", "result": 30, "unit": "%"},
      {"measurement": "inhibition of measured skin redness", "setting": "[1]; treated twice with 1% solution, p<0.05", "result": 27, "unit": "%"}
    ]}
  ]
}
